Source: patent US6376670B1, “Quinoline-indole antimicrobial agents, uses and compositions related thereto” (Sepracor Inc., priority 1997, dated 2002)
Like-named read-outs stand apart in the source and are kept apart here.

Key:
S. aureus (ATCC 29213) = assay: MIC against S. aureus strain; type: cell-based; conditions: Staphylococcus aureus, ATCC29213
Method: (§1) Stock solutions of compounds are prepared with a concentration of 10 mg/mL. These solutions are then diluted 1:4 to give a concentration of 2.5 mg/mL. The compounds are then serially diluted 1:2 for 6 iterations. The concentrations made for each compound are 2.5, 1.25, 0.625, 0.3125, 0.156, 0.078, and 0.039 mg/mL. A control sample (no compound) is run along with each compound tested. All dilutions are made in DMSO.
(§2) All wells of a 96 well microtiter plate are filled with 100 μL of BHI (Brain-Heart Infusion) broth. Columns on the plate are labeled 1-12, and rows are labeled A-H. Each column of wells is used to test one series of diluted compounds. Into each well of 100 μL of BHI broth, 1 μL of diluted compound is placed for a 1:100 dilution. This makes the final concentration of each drug series 25, 12.5, 6.25, 3.125, 1.56, 0.78, 0.39, and 0 μg/mL.
(§3) Test Organism: A sterile 15 mL screw cap tube is filled wth 3 mL of BHI broth. Next, 2-3 colonies of test organism are inoculated into the tube. The tube is then incubated at 37° C. in a CO2 (approx. 7%) atmosphere jar. The organisms are allowed to grow to the density of a 0.5 McFarland standard (10^8 cells/mL). The organism is then inoculated into each well of the microtiter plate containing the diluted compounds to be tested for MIC. The inoculum is 1 μL in volume and represents 10^5 to 10^6 cells/mL.
(§4) After inoculation the plates are covered and incubated at 37° C. and approx. 7-10% CO2 atmosphere overnight (about 16 hours). The plates are then observed for growth, the well with the lowest concentration of drug and no observable growth represents the well determining the MIC.

S. aureus (ATCC 33592) = assay: MIC against S. aureus strain; type: cell-based; conditions: Staphylococcus aureus, ATCC33592
Method: as §1, §2, §3, §4

S. aureus (ATCC 33591) = assay: MIC against S. aureus strain; type: cell-based; conditions: Staphylococcus aureus, ATCC33591
Method: as §1, §2, §3, §4

S. aureus (ATCC 25923) = assay: MIC against S. aureus strain; type: cell-based; conditions: Staphylococcus aureus, ATCC25923
Method: as §1, §2, §3, §4

Streptococcus pneumoniae = assay: Determination of MIC values (BHI broth, 96 well microtiter plate); type: cell-based; conditions: BHI broth; for MIC: Streptococcus pneumoniae, read-out: MIC S. pneu
Procedure, shortened: (§5)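 Broth microdilution in Brain-Heart Infusion with twofold dilution series from 25 µg/mL final and a no-compound control. Overnight incubation at 37° C in a CO2 atmosphere; visual growth endpoint gives the MIC.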

[1] = system: methicillin-resistant Staphylococcus aureus (MRSA); assay: as above; type: cell-based; conditions: BHI broth; for MIC: Staphylococcus aureus, MRSA, read-out: MIC MRSA
Procedure, shortened: as §5

[2] = system: vancomycin-resistant Enterococcus spp. (VRE); assay: as above; type: cell-based; conditions: BHI broth; for MIC: Enterococcus, VRE, read-out: MIC VREF
Procedure, shortened: as §5

[3] = Acute in vivo toxicity in mice, intraperitoneal injection; conditions: in 10% w/v hydroxypropyl-β-cyclodextrin in 0.9% w/v saline, 5 mice
Method: Solutions of compounds in 10% w/v hydroxypropyl-β-cyclodextrin in 0.9% w/v saline were prepared. Doses of 40 mg/kg or 120 mg/kg of each compound were administered to mice (5 mice/compound/dose) via intraperitoneal injections. The mice […] for seven days.

[4] = 37° C., overnight (about 16 hours)
[5] = 16 h, 37° C., overnight (about 16 hours)

Row | SMILES | Mice Surviving on Day 7 ([3]; 40 mg/kg intraperitoneal) | Mice Surviving on Day 7 ([3]; 120 mg/kg intraperitoneal) | MIC (Streptococcus pneumoniae; 37° C., about 16 hours) | MIC ([1]; 16 h, 37° C., about 16 hours) | MIC ([2]; 16 h, 37° C., about 16 hours) | further results
1 | NCC(O)CNC(=O)c1cc(-c2c[nH]c3ccc(Br)cc23)nc2cc(Cl)cc(Cl)c12 (stereo not shown) [Entry 11] | – | – | – | – | – | MIC (S. aureus (ATCC 29213)): < 7 µg/mL; MIC (S. aureus (ATCC 33592)): < 7 µg/mL; MIC (S. aureus (ATCC 33591)): < 7 µg/mL; MIC (S. aureus (ATCC 25923)): < 7 µg/mL
2 | NCCNC(=O)c1cc(-c2c[nH]c3ccc(Br)cc23)nc2ccc(I)cc12 [Example 107] | 100% | 0% | – | – | – | MIC (Streptococcus pneumoniae; [4]): < 7 µg/mL; MIC [1, 5]: < 7 µg/mL; MIC [2, 5]: < 7 µg/mL
3 | Fc1ccc2c(-c3ccc4cc(Cl)ccc4n3)c[nH]c2c1 [Example 193] | 100% | 100% | – | – | – | MIC (Streptococcus pneumoniae; [4]): < 7 µg/mL; MIC [1, 5]: < 7 µg/mL; MIC [2, 5]: < 7 µg/mL
4 | COC(=O)c1cc(-c2c[nH]c3ccc(Br)cc23)nc2cc(F)ccc12 [Example 307] | 100% | 100% | – | – | – | MIC (Streptococcus pneumoniae; S. pneu, overnight 37° C.): < 7 µg/mL; MIC ([1]; overnight 37° C.): < 7 µg/mL; MIC ([2]; VREF, overnight 37° C.): < 7 µg/mL
5 | NCCNC(=O)c1cc(-c2c[nH]c3ccc(Br)cc23)nc2cc(Cl)ccc12 [Example 316] | 80% | 0% | – | – | – | MIC (Streptococcus pneumoniae; S. pneu, overnight 37° C.): < 7 µg/mL; MIC ([1]; overnight 37° C.): < 7 µg/mL; MIC ([2]; VREF, overnight 37° C.): < 7 µg/mL
6 | Clc1ccc2[nH]cc(-c3cc(Cl)c4ccccc4n3)c2c1 [Example 342] | 100% | 100% | – | – | – | MIC (Streptococcus pneumoniae; S. pneu, overnight 37° C.): < 7 µg/mL; MIC ([1]; overnight 37° C.): < 7 µg/mL; MIC ([2]; VREF, overnight 37° C.): > 25 µg/mL
7 | Cn1cc(-c2cc(C(=O)NCCN)c3cc(I)ccc3n2)c2cc(Br)ccc21 [Example 359] | 100% | 100% | – | – | – | MIC (Streptococcus pneumoniae; S. pneu, overnight 37° C.): < 7 µg/mL; MIC ([1]; overnight 37° C.): < 7 µg/mL; MIC ([2]; VREF, overnight 37° C.): < 7 µg/mL
8 | Cn1cc(-c2cc(C(=O)NCCN)c3cc(C#CCN4CCCCC4)ccc3n2)c2cc(Br)ccc21 [Example 379] | 40% | 0% | – | – | – | –
9 | NCCNC(=O)c1cc(-c2c[nH]c3ccc(Br)cc23)nc2cc(Cl)c(C#CCN3CCCCC3)cc12 [Example 380] | 100% | 0% | – | – | – | MIC (Streptococcus pneumoniae; S. pneu, overnight 37° C.): < 7 µg/mL; MIC ([1]; overnight 37° C.): < 7 µg/mL; MIC ([2]; VREF, overnight 37° C.): < 7 µg/mL
10 | COc1ccc2nc(-c3c[nH]c4ccc(Cl)cc34)ccc2c1 [Example 417] | 100% | 100% | – | – | – | –
11 | NCCNC(=O)c1cc(-c2c[nH]c3ccc(Br)cc23)nc2ccc(C#CCN3CCCCC3)cc12 [Example 418] | 100% | 0% | < 7 µg/mL | < 7 µg/mL | < 7 µg/mL | –
12 | Cn1cc(-c2cc(C(=O)NCCN)c3cc(C#CCN4CCCCC4)c(Cl)cc3n2)c2cc(Br)ccc21 [Example 419] | 40% | 0% | < 7 µg/mL | < 7 µg/mL | < 7 µg/mL | –
13 | Cn1cc(-c2cc(C(=O)NCCN)c3ccc(Cl)cc3n2)c2cc(Br)ccc21 [Example 420] | 100% | 100% | < 7 µg/mL | < 7 µg/mL | < 7 µg/mL | –
14 | OCc1cc(-c2c[nH]c3ccc(Br)cc23)nc2cc(F)ccc12 [Example 447] | 100% | 80% | – | – | – | MIC S. pneu (Streptococcus pneumoniae; 37° C., about 16 hours): < 7 µg/mL; MIC MRSA ([1]; 37° C., about 16 hours): < 7 µg/mL; MIC VREF ([2]; 37° C., about 16 hours): <7 µg/mL
15 | Fc1ccc2c(-c3cc(Cl)c4ccc(Cl)cc4n3)c[nH]c2c1 [Example 461] | 100% | 100% | < 7 µg/mL | < 7 µg/mL | < 7 µg/mL | –
16 | Cc1ccc2[nH]cc(-c3cc(Cl)c4ccc(Cl)cc4n3)c2c1 [Example 474] | 100% | 100% | < 7 µg/mL | < 7 µg/mL | < 25 µg/mL | –
17 | NCCNC(=O)c1cc(-c2c[nH]c3ccc(Br)cc23)nc2ccc(C#CCN3CCSCC3)cc12 [Example 525] | – | – | < 7 µg/mL | < 7 µg/mL | < 7 µg/mL | –
18 | NCCNC(=O)c1cc(-c2c[nH]c3ccc(Br)cc23)nc2ccc(C#CCN3CC=CCC3)cc12 [Example 526] | – | – | < 7 µg/mL | < 7 µg/mL | < 7 µg/mL | –
19 | NCCNC(=O)c1cc(-c2c[nH]c3ccc(Br)cc23)nc2ccc(C#CCNCCc3ccccc3)cc12 [Example 527] | – | – | < 7 µg/mL | < 7 µg/mL | < 7 µg/mL | –
20 | NCCNC(=O)c1cc(-c2c[nH]c3ccc(Br)cc23)nc2cc(Cl)c(C#CCN3CCSCC3)cc12 [Example 528] | – | – | < 7 µg/mL | < 7 µg/mL | < 7 µg/mL | –
21 | NCCNC(=O)c1cc(-c2c[nH]c3ccc(Br)cc23)nc2cc(Cl)c(C#CCN3CC=CCC3)cc12 [Example 529] | – | – | < 7 µg/mL | < 7 µg/mL | < 7 µg/mL | –
22 | NCCNC(=O)c1cc(-c2c[nH]c3ccc(Br)cc23)nc2cc(Cl)c(C#CCNCCc3ccccc3)cc12 [Example 530] | – | – | < 7 µg/mL | < 7 µg/mL | < 7 µg/mL | –
23 | Cc1cc2ccccc2nc1-c1c[nH]c2ccc(Cl)cc12 [Example 531] | – | – | < 7 µg/mL | < 7 µg/mL | < 7 µg/mL | –
24 | NCC(O)CNC(=O)c1cc(-c2c[nH]c3ccc(Br)cc23)nc2cc(F)ccc12 (stereo not shown) [Example 532] | – | – | < 7 µg/mL | < 7 µg/mL | < 7 µg/mL | –
25 | NCC(O)CNC(=O)c1cc(-c2c[nH]c3ccc(Br)cc23)nc2cc(Cl)cc(Cl)c12 (stereo not shown) [Example 533] | – | – | < 7 µg/mL | < 7 µg/mL | < 7 µg/mL | –
26 | NCC(O)CNC(=O)c1cc(-c2c[nH]c3ccc(Br)cc23)nc2ccc(C#CCN3CCCCC3)cc12 (stereo not shown) [Example 534] | – | – | < 7 µg/mL | < 7 µg/mL | < 7 µg/mL | –
27 | NCc1ccc(CNC(=O)c2cc(-c3c[nH]c4ccc(Br)cc34)nc3ccccc23)cc1 [compound 9] | – | – | – | – | – | MIC (Streptococcus pneumoniae; [4]): < 7 µg/mL; MIC [1, 5]: < 7 µg/mL; MIC [2, 5]: < 7 µg/mL
28 | NCc1ccc(CNC(=O)c2cc(-c3c[nH]c4ccc(Br)cc34)nc3ccc(I)cc23)cc1 [compound 53] | – | – | – | – | – | MIC (Streptococcus pneumoniae; [4]): < 7 µg/mL; MIC [1, 5]: < 7 µg/mL; MIC [2, 5]: < 7 µg/mL
